From patent publication EP4574151A1, “INHIBITORS OF G12V-MUTATED RAS PROTEIN TO TREAT CANCER” (Personather Spolka Z Ograniczona Odpowiedzialnoscia, priority 2023, dated 2025)
“Also recorded” adds a separate entry of the source.

Test system: PER49 cell line
Test: Western Blot analysis of the RAS-controlled signal transduction pathway in a normal cell line
Format: cell-based
Settings: normal PER49 cell line without KRASG12V; 10, 15 and 20 µM; 24 hours; serum-free; ERK, p-ERK, Akt, pAkt blots
Excerpt: Analysis of the impact of the studied compound on the signal transduction pathway controlled by RAS family proteins in normal cell lines based on Western Blot analysis.
The example illustrates the impact of the PER154A and PER160A molecules on the signal transduction pathway in the normal PER49 cell line.
• 1. PER49 cell line cells at 80-90% confluency were rinsed with phosphate-buffered saline without Mg2+ and Ca2+ ions. Remove PBS. • 2. Cells were detached from the vessel using Trypsin-EDTA (0.05%, 1x) for 1-3 minutes at 37°C. • 3. Cells were transferred to a 15 ml tube, centrifuged (200xg, 4 minutes) and suspended in RPMI1640 medium with 10% bovine serum and antibiotics. • 4. Cells were counted. • 5. 3x10^5cells were added to each well of a 6-well plate for adherent culture. • 6. The above medium was added and left for approximately 24 hours.
• 7. The cells were washed 2-3 times with buffered saline without Mg2+ and Ca2+ ions. Each time PBS was thoroughly removed. • 8.2 ml of RPMI1640 medium with antibiotics and without serum was added, and left for approximately 24 hours.
• 9. The cells were washed 2-3 times with a buffered saline solution without Mg2+ and Ca2+. PBS was thoroughly removed each time. • 10. […]

With `O=C(Nc1ccc2c(c1)OCCO2)c1ccc2c(c1)C1C3CCC(C3)C1C(c1ccccc1)N2` (centres unmarked) [PER154A] the “influence on the signal transduction pathway” value was “No impact; also recorded: does not show any influence”.

With `O=C(Nc1ccc(F)cc1)c1ccc2c(c1)C1C3CCC(C3)C1C(c1ccccc1)N2` (centres unmarked) [PER160A] the “influence on the signal transduction pathway” value was “No impact; also recorded: does not show any influence”.
